The values below are quoted from earlier work in patent publication US20080286234A1, “Method for treating demyelinating diseases” (priority 2007, published 2008).

For this data set the following is noted: MS patients; for reduction in the rate of MS relapses / decrease in relapse rate: vs. placebo.

For glatiramer acetate, the “reduction in the rate of MS relapses / decrease in relapse rate” value is given as 30-35%. In addition, under “clinical trials”, the “effect on exacerbations in clinical trials” value is “reduce the number and severity of exacerbations”; the “effect on new, gadolinium-enhanced brain lesions on MRI scans” value is “reduce the number of new, gadolinium-enhanced brain lesions”.

With “natalizumab: monoclonal antibody against integrin-(4 used to treat multiple sclerosis and Crohn's disease”, the “slowed the progression of disability (as measured by EDSS)” value is reported as 42% and the “reduction in the rate of MS relapses / decrease in relapse rate” value is 67%.
